Measured values: patent US11692004B2, “Substituted pyrazole compound, preparation method therefor, pharmaceutical composition and medical use thereof” (JIANGSU VANGUARD PHARMACEUTICAL CO., LTD., priority 2018, dated 2023)

What was measured:
[1] = Cytotoxic test (MTT); assay type: cell-based; conditions: rat, PC12 cells, 48 h incubation
Experimental: (§1) After resuscitating, the PC12 cells were cultured in RPMI-1640 containing 10% horse serum and 5% Fetus Bovine Serum (FBS) under 5% CO2 at 37° C. for two weeks. The medium was changed every other day. The compounds were diluted into solutions of 12.5, 25, 50, 100, 200, 300 μM with culture medium (except examples 33-45 with additional solutions of 400 μM and 500 μM). The PC12 cells were seeded into a 96-well plate at a density of 1.2×10^4 cells/well and cultured in a 37° C., 5% CO2 incubator for 24 hours. Remove the medium, the cells were added with the compound solutions of different concentrations as test solutions for another 48 h incubation in a 37° C., 5% CO2 incubator.
(§2) After the incubation, the wells were added with 20 μL 5 mg/mL MTT and incubated for 4 hours at 37° C. Carefully removed the medium and added 150 μL DMSO. The plates were placed on an enzyme-labeled instrument and vibrated for 5 min. The absorbance Atest solution were obtained at 490 nm with the Ablank of the well without cells and the Acontrol of the well with untreated cells. The survival rates of the cells in every well were calculated by the formula as Survival rate (%)=(Atest solution−Ablank)/(Acontrol−Ablank)*100%

[2] = test system: PC12 cells; assay: In-vitro neuroprotection-I (H2O2 injury, MTT); assay type: cell-based; conditions: Rattus norvegicus, PC-12, 48 h compound, then 200 μM H2O2 24 h, MTT survival rate
Experimental: All samples were made into 60 mM stock solution by DMSO, which were 200 times diluted to 300 μM by medium. And the final concentration was further diluted into different concentrations by media.
Control: Normal cell-plating and same cell medium as other group. 24 hours later, the medium was discarded. Incubate the cell in new media for 24 hours. No compound and hydrogen peroxide treatment. Other steps were the same as the sample test as mentioned below did.
Blank: no cell plating, cell medium, and other steps were the same as the sample test as mentioned below did.
as §1, with “(except that” for “(except”, “The PC 12” for “The PC12”, “of 8×10^3” for “of 1.2×10^4”, “hours. Removed” for “hours. Remove”, “incubator. After the incubation, apart from the blank and control groups, the wells (including 0 μM drug group) were added to the medium-prepared 200 μM H2O2, and continued for another 24 h incubation in a 37° C., 5% CO2 incubator.” for “incubator.”
as §2, with “rate” for “rates”, “well” for “well were calculated”, “survival” for “as Survival”, “solution−Ablank)/(Acontrol−Ablank)*100%.” for “solution−Ablank)/(Acontrol−Ablank)*100%”

[3] = test system: MCAO model (middle cerebral artery ischemia-reperfusion); assay: In vivo drug efficacy test of MCAO model; conditions: SD rats, MCAO 2 h then reperfusion, tail vein infusion 30 min; for Cerebral infarction area (%): TTC staining, infarct area to whole brain area; for Improvements of nerve function (%): score at 24 h versus model control

Q: Which IC50 at 48 h [1] does the source give for CCOC(=O)Oc1ccc(N(C)C)cc1C(=O)OCOc1cc(C)nn1-c1ccccc1 [Compound 25, (3-methyl-1-phenylpyrazole-5-) oxymethyl-(2-ethoxycarbonyloxy-5-N,N-dimethyl)benzoic Acid] here?
A: The IC50 at 48 h was greater than 300 µM.

Q: And the EC50 [2]?
A: The EC50 was 59.3 µM.

Q: With CC(=O)OCOc1cc(C)nn1-c1ccccc1 [Compound 26] as the molecule, how does the IC50 at 48 h [1] read?
A: The IC50 at 48 h was greater than 300 µM.

Q: What about the EC50 [2] of the same molecule?
A: The EC50 was 54.8 µM.

Q: With Cc1cc(OCOC(=O)Cc2ccccc2)n(-c2ccccc2)n1 [Compound 31] as the molecule, how does the EC50 [2] read?
A: The EC50 was 91.2 µM.

Q: With Cc1cc(OCOC(=O)c2cccc(N(C)C)c2O)n(-c2ccccc2)n1 [Compound 23, (3-methyl-1-phenylpyrazol-5-) oxymethyl-(2-hydroxy-3-N,N-dimethyl)benzoate] as the molecule, how does the EC50 [2] read?
A: The EC50 was 124 µM.

Q: With CCCCCCCCCCCCCCCCCC(=O)OCOc1cc(C)nn1-c1ccccc1 [Compound 32] as the molecule, how does the IC50 at 48 h [1] read?
A: The IC50 at 48 h was greater than 300 µM.

Q: And the EC50 [2]?
A: The EC50 was 80.7 µM.

Q: For Cc1cc(OCNC(=O)CCCc2ccccc2)n(-c2ccccc2)n1 [Compound 50, N-((1-phenyl-3-methyl-1H-pyrazol-5-yl)oxy) methylphenylbutyramide], which EC50 [2] is on record?
A: The EC50 was 101 µM.

Q: Which results are given for Cc1cc(OCOC(=O)c2cccnc2)n(-c2ccccc2)n1 [Compound 17, (3-methyl-1-phenylpyrazol-5-) oxymethyl nicotinate]?
A: IC50 at 48 h [1]: > 300 µM; EC50 [2]: 94.9 µM

Q: With Cc1cc(OC(C)OC(=O)Cc2ccccc2)n(-c2ccccc2)n1 (centres unmarked) [Compound 8] as the molecule, how does the EC50 [2] read?
A: Its EC50 is 100 µM.

Q: For Cc1cc(OCOC(=O)C2CCCCC2)n(-c2ccccc2)n1 [Compound 30], which EC50 [2] is on record?
A: The EC50 was 77.2 µM.

Q: Which EC50 [2] does the source give for CC(=O)NCOc1cc(C)nn1-c1ccccc1 [Compound 41, N-((1-phenyl-3-methyl-1H-pyrazol-5-yl)oxy) methylacetamide] here?
A: Its EC50 is 55.1 µM.

Q: For CCCCCCCC(=O)OC(C)Oc1cc(C)nn1-c1ccccc1 (centres unmarked) [Compound 5, 1-(3-methyl-1-phenylpyrazole)oxyethyl octanoate], which IC50 at 48 h [1] is on record?
A: Its IC50 at 48 h is greater than 300 µM.

Q: What does the source list for CCCCCCCC(=O)OCOc1cc(C)nn1-c1ccccc1 [Compound 15, (3-methyl-1-phenylpyrazol-5-) oxymethyl octanoate]?
A: EC50 [2]: 67.2 µM; Cerebral infarction area (%) [3]: 20.0%; Improvements of nerve function (%) [3]: 15.9%

Q: With Cc1cc(OCOC(=O)c2ccccc2)n(-c2ccccc2)n1 [Compound 18, (3-methyl-1-phenylpyrazol-5-) oxymethyl benzoate] as the molecule, how does the IC50 at 48 h [1] read?
A: The IC50 at 48 h was greater than 300 µM.

Q: And the EC50 [2]?
A: Its EC50 is 75 µM.

Q: Which EC50 [2] does the source give for Cc1cc(OCOC(=O)C2CC2)n(-c2ccccc2)n1 [Compound 28] here?
A: The EC50 was 85.9 µM.

Q: With CCCCCCCCCCCCCCCCCC(=O)NCOc1cc(C)nn1-c1ccccc1 [Compound 52, N-((1-phenyl-3-methyl-1H-pyrazol-5-yl)oxy)methyl stearamide] as the molecule, how does the EC50 [2] read?
A: The EC50 was 78.6 µM.

Q: For Cc1cc(OCOC(=O)C(C)(C)C)n(-c2ccccc2)n1 [Compound 13, (3-methyl-1-phenylpyrazol-5-) oxymethyl pivalate], which IC50 at 48 h [1] is on record?
A: The IC50 at 48 h was 252 µM.

Q: And the EC50 [2]?
A: The EC50 was 110 µM.

Q: What about the “Cerebral infarction area (%)” value [3] of the same molecule?
A: The value was 17.5%.

Q: And the “Improvements of nerve function (%)” value [3]?
A: The value was 17.2%.

Q: Which results are given for Cc1cc(OC(C)OC(=O)CCCc2ccccc2)n(-c2ccccc2)n1 (centres unmarked) [Compound 9, 1-(3-methyl-1-phenylpyrazole)oxyethyl phenylbutyrate]?
A: IC50 at 48 h [1]: > 300 µM; EC50 [2]: 120 µM; Cerebral infarction area (%) [3]: 19.8%; Improvements of nerve function (%) [3]: 16.0%

Q: Which EC50 [2] does the source give for Cc1cc(OCOC(=O)C(C)C)n(-c2ccccc2)n1 [Compound 14, (3-methyl-1-phenylpyrazol-5-) oxymethyl isobutyrate] here?
A: Its EC50 is 45.2 µM.

Q: For CCOC(=O)Oc1ccccc1C(=O)OCOc1cc(C)nn1-c1ccccc1 [Compound 21, (3-methyl-1-phenylpyrazole-5-) oxymethyl-(2-ethoxycarbonyloxy) benzoate], which EC50 [2] is on record?
A: The EC50 was 82.1 µM.

Q: With Cc1cc(OCOC(=O)CCCc2ccccc2)n(-c2ccccc2)n1 [Compound 16, (3-methyl-1-phenylpyrazol-5-) oxymethyl phenylbutyrate] as the molecule, how does the IC50 at 48 h [1] read?
A: The IC50 at 48 h was 234 µM.

Q: What about the EC50 [2] of the same molecule?
A: Its EC50 is 48 µM.

Q: And the “Cerebral infarction area (%)” value [3]?
A: Its value is 19.9%.

Q: And the “Improvements of nerve function (%)” value [3]?
A: The value was 16.2%.

Q: With Cc1cc(OC(C)OC(=O)C2CC2)n(-c2ccccc2)n1 (centres unmarked) [Compound 10] as the molecule, how does the EC50 [2] read?
A: The EC50 was 55.7 µM.

Q: With CCC(=O)NCOc1cc(C)nn1-c1ccccc1 [Compound 42, N-((1-phenyl-3-methyl-1H-pyrazol-5-yl)oxy) methyl propionamide] as the molecule, how does the IC50 at 48 h [1] read?
A: The IC50 at 48 h was greater than 300 µM.

Q: And the EC50 [2]?
A: The EC50 was 75.4 µM.

Q: What about the “Cerebral infarction area (%)” value [3] of the same molecule?
A: The value was 19.7%.

Q: What about the “Improvements of nerve function (%)” value [3] of the same molecule?
A: Its value is 15.9%.

Q: For Cc1cc(OCOC(=O)c2ccccc2O)n(-c2ccccc2)n1 [Compound 19, (3-methyl-1-phenylpyrazol-5-) oxymethyl-(2-hydroxy) benzoate], which IC50 at 48 h [1] is on record?
A: The IC50 at 48 h was greater than 300 µM.

Q: For Cc1cc(OC(C)OC(=O)C2CCCCC2)n(-c2ccccc2)n1 (centres unmarked) [Compound 12], which EC50 [2] is on record?
A: The EC50 was 89 µM.

Q: For Cc1cc(OCOC(=O)c2ccccc2OC(=O)C(C)C)n(-c2ccccc2)n1 [Compound 22, (3-methyl-1-phenylpyrazol-5-)oxymethyl-(2-isobutyryloxy)benzoic acid], which EC50 [2] is on record?
A: The EC50 was 103 µM.

Q: For Cc1cc(OCNC(=O)C(C)C)n(-c2ccccc2)n1 [Compound 43, N-((1-phenyl-3-methyl-1H-pyrazol-5-yl)oxy) methylisobutyramide], which EC50 [2] is on record?
A: The EC50 was 58.1 µM.

Q: What about the “Cerebral infarction area (%)” value [3] of the same molecule?
A: Its value is 19.8%.

Q: And the “Improvements of nerve function (%)” value [3]?
A: Its value is 16.1%.

Q: For Cc1cc(OC(C)OC(=O)C(C)(C)C)n(-c2ccccc2)n1 (centres unmarked) [Compound 4, 1-(3-methyl-1-phenylpyrazole) oxyethyl pivalate], which IC50 at 48 h [1] is on record?
A: Its IC50 at 48 h is greater than 300 µM.

Q: And the EC50 [2]?
A: Its EC50 is 69.5 µM.

Q: Which IC50 at 48 h [1] does the source give for Cc1cc(OCNC(=O)Cc2ccccc2)n(-c2ccccc2)n1 [Compound 49, N-((1-phenyl-3-methyl-1H-pyrazol-5-yl)oxy) methylphenylacetamide] here?
A: Its IC50 at 48 h is greater than 300 µM.

Q: Which EC50 [2] does the source give for CC(=O)OC(C)Oc1cc(C)nn1-c1ccccc1 (centres unmarked) [Compound 1] here?
A: Its EC50 is 66.4 µM.

Q: What does the source list for Cc1cc(OC(C)OC(=O)C(C)C)n(-c2ccccc2)n1 (centres unmarked) [Compound 3, 1-(3-methyl-1-phenylpyrazole) oxyethyl isobutyrate]?
A: IC50 at 48 h [1]: > 300 µM; EC50 [2]: 98 µM

Q: For CCCCCCCCCCCCCCCCCC(=O)OC(C)Oc1cc(C)nn1-c1ccccc1 (centres unmarked) [Compound 6], which EC50 [2] is on record?
A: Its EC50 is 56.8 µM.

Q: With Cc1cc(OCNC(=O)C2CC2)n(-c2ccccc2)n1 [Compound 45, N-((1-phenyl-3-methyl-1H-pyrazol-5-yl)oxy) methylcyclopropylformamide] as the molecule, how does the EC50 [2] read?
A: The EC50 was 75.3 µM.

Q: Which EC50 [2] does the source give for Cc1cc(OCNC(=O)c2ccccc2)n(-c2ccccc2)n1 [Compound 48, N-((1-phenyl-3-methyl-1H-pyrazol-5-yl)oxy) methylbenzamide] here?
A: Its EC50 is 123 µM.

Q: With Cc1cc(OCNC(=O)C(C)(C)C)n(-c2ccccc2)n1 [Compound 44, N-((1-phenyl-3-methyl-1H-pyrazol-5-yl)oxy) methyltrimethylacetamide] as the molecule, how does the EC50 [2] read?
A: Its EC50 is 77.9 µM.

Q: For Cc1cc(OC(C)OC(=O)c2ccccc2)n(-c2ccccc2)n1 (centres unmarked) [Compound 7, 1-(3-methyl-1-phenylpyrazole) oxyethyl benzoate], which IC50 at 48 h [1] is on record?
A: Its IC50 at 48 h is greater than 300 µM.

Q: What about the EC50 [2] of the same molecule?
A: Its EC50 is 88.9 µM.

Q: With Cc1cc(OCNC(=O)C2CCCC2)n(-c2ccccc2)n1 [Compound 46, N-((1-phenyl-3-methyl-1H-pyrazol-5-yl)oxy) methylcyclopentylformamide] as the molecule, how does the EC50 [2] read?
A: The EC50 was 90.1 µM.

Q: For Cc1cc(OCNC(=O)C2CCCCC2)n(-c2ccccc2)n1 [Compound 47, N-((1-phenyl-3-methyl-1H-pyrazol-5-yl)oxy) methylcyclohexanecarboxamide], which IC50 at 48 h [1] is on record?
A: Its IC50 at 48 h is 269 µM.

Q: What about the EC50 [2] of the same molecule?
A: Its EC50 is 53.6 µM.
